Laboratory results taken from PubChem BioAssay (NCI).
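How tested: cells in 96-well plates exposed to compound for 48 hours at five concentrations. Definition used: TGI = concentration required for complete inhibition of growth.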

Key:
Assay in all cases: NCI anticancer screen, dose series, 48 h
HCC-2998 colon = tested on: HCC-2998 colon
EKVX NSCLC = tested on: EKVX NSCLC
HL-60(TB) leukemia = tested on: HL-60(TB) leukemia
UACC-257 melanoma = tested on: UACC-257 melanoma
KM20L2 colon = tested on: KM20L2 colon
IGROV1 ovarian = tested on: IGROV1 ovarian
786-0 renal = tested on: 786-0 renal
M19-MEL melanoma = tested on: M19-MEL melanoma
COLO 205 colon = tested on: COLO 205 colon
U251 CNS = tested on: U251 CNS
DMS 114 small cell lung = tested on: DMS 114 small cell lung
SK-MEL-2 melanoma = tested on: SK-MEL-2 melanoma
A549 NSCLC = tested on: A549 NSCLC
NCI-H460 lung = tested on: NCI-H460 lung
OVCAR-5 ovarian = tested on: OVCAR-5 ovarian
M14 melanoma = tested on: M14 melanoma
NCI-H226 lung = tested on: NCI-H226 lung
SW-620 colon = tested on: SW-620 colon
ACHN renal = tested on: ACHN renal
RXF 393 renal = tested on: RXF 393 renal
A498 renal = tested on: A498 renal
SN12C renal = tested on: SN12C renal
SK-MEL-5 melanoma = tested on: SK-MEL-5 melanoma
MOLT-4 leukemia = tested on: MOLT-4 leukemia
TK-10 renal = tested on: TK-10 renal
KM12 colon = tested on: KM12 colon
HOP-62 NSCLC = tested on: HOP-62 NSCLC
SF-295 CNS = tested on: SF-295 CNS
HOP-18 NSCLC = tested on: HOP-18 NSCLC
RXF-631 renal = tested on: RXF-631 renal
HCT-116 colon = tested on: HCT-116 colon
SF-268 CNS = tested on: SF-268 CNS
OVCAR-3 ovarian = tested on: OVCAR-3 ovarian
UACC-62 melanoma = tested on: UACC-62 melanoma
RPMI-8226 leukemia = tested on: RPMI-8226 leukemia
UO-31 renal = tested on: UO-31 renal
SK-MEL-28 melanoma = tested on: SK-MEL-28 melanoma
OVCAR-8 ovarian = tested on: OVCAR-8 ovarian
OVCAR-4 ovarian = tested on: OVCAR-4 ovarian
LOX IMVI melanoma = tested on: LOX IMVI melanoma
MALME-3M melanoma = tested on: MALME-3M melanoma
SNB-19 CNS = tested on: SNB-19 CNS
HOP-92 NSCLC = tested on: HOP-92 NSCLC
SNB-78 CNS = tested on: SNB-78 CNS
DLD-1 colon = tested on: DLD-1 colon
LXFL 529 NSCLC = tested on: LXFL 529 NSCLC
SNB-75 CNS = tested on: SNB-75 CNS
HT29 colon = tested on: HT29 colon
XF 498 CNS = tested on: XF 498 CNS
NCI-H23 lung = tested on: NCI-H23 lung
CCRF-CEM leukemia = tested on: CCRF-CEM leukemia

NC(=O)/C(=N\NC(=O)c1cc2ccccc2cc1O)C1C(=O)N(c2ccccc2)N=C1N (stereo unspecified)
TGI (HCC-2998 colon): > 100 µM
TGI (EKVX NSCLC): > 100 µM
TGI (HL-60(TB) leukemia): 47.2 µM
TGI (UACC-257 melanoma): 65 µM
TGI (KM20L2 colon): > 100 µM
TGI (IGROV1 ovarian): > 100 µM
TGI (786-0 renal): > 100 µM
TGI (M19-MEL melanoma): > 100 µM
TGI (COLO 205 colon): > 100 µM
TGI (U251 CNS): > 100 µM
TGI (DMS 114 small cell lung): 53.2 µM
TGI (SK-MEL-2 melanoma): 83 µM
TGI (A549 NSCLC): > 100 µM
TGI (NCI-H460 lung): > 100 µM
TGI (OVCAR-5 ovarian): 54 µM
TGI (M14 melanoma): > 100 µM
TGI (NCI-H226 lung): > 100 µM
TGI (SW-620 colon): > 100 µM
TGI (ACHN renal): > 100 µM
TGI (RXF 393 renal): > 100 µM
TGI (A498 renal): 37.5 µM
TGI (SN12C renal): > 100 µM
TGI (SK-MEL-5 melanoma): 37.2 µM
TGI (MOLT-4 leukemia): 94.5 µM
TGI (TK-10 renal): > 100 µM
TGI (KM12 colon): > 100 µM
TGI (HOP-62 NSCLC): > 100 µM
TGI (SF-295 CNS): > 100 µM
TGI (HOP-18 NSCLC): > 100 µM
TGI (RXF-631 renal): > 100 µM
TGI (HCT-116 colon): > 100 µM
TGI (SF-268 CNS): > 100 µM
TGI (OVCAR-3 ovarian): > 100 µM
TGI (UACC-62 melanoma): 35.9 µM
TGI (RPMI-8226 leukemia): > 100 µM
TGI (UO-31 renal): > 100 µM
TGI (SK-MEL-28 melanoma): > 100 µM
TGI (OVCAR-8 ovarian): > 100 µM
TGI (OVCAR-4 ovarian): > 100 µM
TGI (LOX IMVI melanoma): > 100 µM
TGI (MALME-3M melanoma): > 100 µM
TGI (SNB-19 CNS): > 100 µM
TGI (HOP-92 NSCLC): 94.6 µM
TGI (SNB-78 CNS): > 100 µM
TGI (DLD-1 colon): > 100 µM
TGI (LXFL 529 NSCLC): > 100 µM
TGI (SNB-75 CNS): > 100 µM
TGI (HT29 colon): > 100 µM
TGI (XF 498 CNS): > 100 µM
TGI (NCI-H23 lung): 56.5 µM
TGI (CCRF-CEM leukemia): 87.6 µM
